Data taken from publication PMC10024865 (Journal of medicinal chemistry, 2022).

How the values were obtained:
PC3M cells [1] = assay: Secondary cytotoxicity/viability assays; format: cell-based; conditions: ATP, caspase 3/7, PicoGreen
PC3M cells [2] = assay: BellBrook Labs tumor cell migration; format: cell-based; conditions: 3D collagen
[3] = system: PNC prevalence in PC3M cells (GFP-PTB); assay: High-content assay for PNC reduction; format: cell-based
[4] = Parallel artificial membrane permeability assay; format: in vitro ADME; conditions: pH 7.4
in vivo = conditions: ip
[5] = system: nucleolar volume in PC3M cells; assay: Nucleolar disassembly assay; format: cell-based; conditions: 24 hr, concentration-response
[6] = mouse, in vivo, ip, 5 mg/kg
[7] = system: nucleolar architecture in PC3M cells; assay: Immunofluorescence of nucleolar markers RP-194 and NOPP140; format: cell-based; conditions: 1 μM, 1 hour

O=C(Nc1cccnc1)c1cccs1 [CID 790407]
Activity in all other secondary cytotoxicity/viability assays (PC3M cells [1]): inactive
Activity in the invasion assay (PC3M cells [2]): active

OCCCNc1ncnc2c1c(-c1ccccc1)c(-c1ccccc1)n2Cc1ccccc1 [Compound 13a, 3-((7-Benzyl-5,6-diphenyl-7H-pyrrolo[2,3-d]pyrimidin-4-yl)amino)propan-1-ol]
PNC reduction activity (in words) [3]: uniformly inactive

N#Cc1c(-c2ccccc2)c(-c2ccccc2)n(Cc2ccccc2)c1N [Compound 2a]
PNC reduction activity (in words) [3]: inactive

Cc1c(C)n(Cc2ccccc2)c2ncn([C@H]3CC[C@H](O)CC3)c(=N)c12 [Compound 5nnn, (trans)-4-(7-Benzyl-4-imino-5,6-dimethyl-4,7-dihydro-3H-pyrrolo[2,3-d]pyrimidin-3-yl)cyclohexan-1-ol]
PAMPA permeability (in words) [4]: negligible

N#Cc1c(-c2ccccc2)c(-c2ccccc2)n(Cc2ccccc2)c1/N=C/N[C@H]1CC[C@H](O)CC1 [Compound 4f, (E)-N'-(1-benzyl-3-cyano-4,5-diphenyl-1H-pyrrol-2-yl)-N-((trans)-4-hydroxycyclohexyl)formimidamide]
PNC reduction activity (in words) [3]: inactive

N=c1c2c(-c3ccccc3)c(-c3ccccc3)n(Cc3ccccc3)c2ncn1[C@H]1CC[C@H](O)CC1 [Compound 5f, trans-4-(7-Benzyl-4-imino-5,6-diphenyl-4,7-dihydro-3H-pyrrolo[2,3-d]pyrimidin-3-yl)cyclohexan-1-ol]
half-life (in vivo; female, BALB/c, mouse, 5 mg/kg): 4.64 h
half-life (in vivo; female, BALB/c, mouse, 25 mg/kg): 5.52 h
concentration at 48 h (in vivo; female, BALB/c, mouse, 25 mg/kg, C48h (μM)): 0.011 µM
half-life (in vivo; male, C57BL/6, mouse, 50 mg/kg): 16.4 h
effect on nucleolar volume [5]: able to reduce nucleolar volume
C48h (μM) [6]: BLQ^b

CCO/C=N/c1c(C#N)c(-c2ccccc2)c(-c2ccccc2)n1Cc1ccccc1 [Compound 3a, Ethyl (E)-N-(1-benzyl-3-cyano-4,5-diphenyl-1H-pyrrol-2-yl)formimidate]
PNC reduction activity (in words) [3]: inactive

O[C@H]1CC[C@H](Nc2ncnc3c2c(-c2ccccc2)c(-c2ccccc2)n3Cc2ccccc2)CC1 [Compound 13b, trans-4-((7-Benzyl-5,6-diphenyl-7H-pyrrolo[2,3-d]pyrimidin-4-yl)amino)cyclohexan-1-ol]
PNC reduction activity (in words) [3]: uniformly inactive

N=c1c2c(-c3ccccc3)cn(Cc3ccccc3)c2ncn1C1CCOCC1 [Compound 11b, 7-Benzyl-5-phenyl-3-(tetrahydro-2H-pyran-4-yl)-3,7-dihydro-4H-pyrrolo[2,3-d]pyrimidin-4-imine]
distribution of RP-194 and NOPP140 in the nucleolus [7]: diffuse distribution
effect on nucleolar volume [5]: did not influence nucleolar integrity and morphology
